Measurements published in patent US8987257B2 (Novartis AG, priority 2011, dated 2015).

Columns and labels:
PI3Kα = PI3Kα (Homo sapiens (Human), UniProt P42336); test: Test 1: PI3 Kinase Assay (PI3K KinaseGlo assay); format: biochemical; conditions: 1 μM ATP
Description: L-a-phosphatidylinositol (PI), provided as 10 mg/ml solution in methanol, was transferred into a glass tube and dried under nitrogen beam. It was then resuspended in 3% OctylGlucoside (OG) by vortexing and stored at 4° C. The KinaseGlo Luminescent Kinase Assay (Promega, Madison/WI, USA) is a homogeneous HTS method of measuring kinase activity by quantifying the amount of ATP remaining in solution following a kinase reaction.
Kinase reactions were started by addition of 5 μl of ATP-mix containing in a final volume 10 μL 10 mM TRIS-HCl pH 7.5, 3 mM MgCl2, 50 mM NaCl, 0.05% CHAPS, 1 mM DTT and 1 μM ATP, and occurred at room temperature.
The PI3Kα construct is a fusion of p85α iSH2 domain and the respective p110 isoform. The p85α fragment and p110 isoform gene were generated by PCR from first strand cDNA generated by RT-PCR from commercial RNA from placenta, testis and brain as described below.
The p85 fragment was derived from plasmid p1661-2 digested with Nhe/Spe. The p110α fragment derived from its clone was verified by sequencing and used in LR410 as a SpeI/HindIII fragment. For the generation of the baculovirus expression vector LR410 the gateway LR reaction to transfer the insert into the Gateway adapted pBlueBac4.5 (Invitrogen) vector was used. The cloning vector pBlueBac4.5 (Invitrogen) was digested with Nhe/HindIII. […] The two reverse primers overlap and incorporate a 12×Gly linker and the N-terminal sequence of the p110α gene to the SpeI site. The PCR fragment was cloned into pCR2.1 TOPO (Invitrogen). Of the resulting clones, p1661-2 was determined to be correct by sequencing. This plasmid was digested with Nhe and SpeI and the resulting fragment was gel-isolated and purified for sub-cloning.
PI3Kα was purified in two chromatographic steps: immobilized metal affinity chromatography (IMAC) on a Ni sepharose resin (GE Healthcare) and gel filtration utilizing a Superdex 200 26/60 column (GE Healthcare). All buffers were chilled to 4° C. and lysis was performed chilled on ice. Column fractionation was performed at room temperature.

[1] = test system: constitutively active mTOR; test: Test 3: TSC Assay (high content imaging of phospho-S6 (240/244) in TSC1−/− MEFs); format: cell-based; conditions: Mus musculus, pS6 240/244 staining, 2 hrs compound treatment
Description: This assay generates IC50 values for compounds that inhibit mTOR.
Quantification of pS6 Staining Using High-Content Imaging and Analysis
Day 0: Cell plating. Subconfluent TSC1−/− MEFs are harvested by trypsinization, resuspended in growth medium, and counted. […] The plates are briefly spun down and placed at 37° C. and 5% CO2. • 2. Day 1: Cell plates are washed into a PBS starve solution (contains glucose, sodium bicarbonate, HEPES and phenol red) using a 384-well plate washer. The wash protocol aspirates the volume down to 30 μL/well before dispensing 60 μL/well of the PBS starve solution. Aspiration and dispensing steps are repeated 8 times and a final volume of 30 μL/well is left. The cell plates are placed at 37° C. and 5% CO2 for 2 hrs. • Compound treatment. Compound dose responses are prepared in DMSO. The dose responses are then diluted 1:50 in medium. 10 ul of the diluted compound is added to 30 ul of cells, yielding a final 1:200 dilution of the original compound and final of 0.5% DMSO. Compound-treatments are performed in triplicates. The plates are placed at 37° C. and 5% CO2 for 2 hrs. Cells are then fixed by adding 10 μL/well 5× concentrated Mirsky's fixative. […] The cell plates are briefly spun down and incubated for 1 h at room temperature. Cells are then washed using a 384-well plate washer using a protocol which aspirates the volume down to 30 μL/well before dispensing 60 μL/well 1×TBS. Aspiration and dispensing steps are repeated 8 times and then an additional aspiration step leaves a final volume of 10 μL/well. Block buffer (1×TBS+0.1% Triton X-100+0.1% BSA) is then added at 25 μL/well and the plates are incubated at room temperature for 30 min. The cell plates are then aspirated down to 10 μL/well. […] Plates are incubated overnight at 4° C. • 3. […] The bottom of the plate is cleaned with 70% ethanol and then imaged using the InCell 1000 automated epifluorescence microscope. […] Cy5 images are acquired using an excitation of 620 nm (Chroma 620—60× filter), an emission of 700 nm (Chroma HQ700—75M filter) and an exposure time of 200 ms. A double band pass mirror is used for all images. • 4. Image analysis: The InCell Analysis software is used to analyze the images using the Dual Object algorithm. […] The Cy5 fluorescence intensity inside the collar is measured (cell intensity) and results are reported on an “Average per cell” basis. • 5. IC50 calculation: IC50s are calculated by plotting the cell intensity values on the y-axis with dose response values on the x-axis. IC50 values represent compound potency against mTOR.

FRAP1/mTOR = FRAP1/mTOR (Homo sapiens (Human), UniProt P42345); test: Test 2: mTOR Biochemical Assay (FRAP1/mTOR TR-FRET tracer assay); format: binding; conditions: mTOR Kinase Tracer 314
Sequence of FRAP1/mTOR (P42345 1360-2549): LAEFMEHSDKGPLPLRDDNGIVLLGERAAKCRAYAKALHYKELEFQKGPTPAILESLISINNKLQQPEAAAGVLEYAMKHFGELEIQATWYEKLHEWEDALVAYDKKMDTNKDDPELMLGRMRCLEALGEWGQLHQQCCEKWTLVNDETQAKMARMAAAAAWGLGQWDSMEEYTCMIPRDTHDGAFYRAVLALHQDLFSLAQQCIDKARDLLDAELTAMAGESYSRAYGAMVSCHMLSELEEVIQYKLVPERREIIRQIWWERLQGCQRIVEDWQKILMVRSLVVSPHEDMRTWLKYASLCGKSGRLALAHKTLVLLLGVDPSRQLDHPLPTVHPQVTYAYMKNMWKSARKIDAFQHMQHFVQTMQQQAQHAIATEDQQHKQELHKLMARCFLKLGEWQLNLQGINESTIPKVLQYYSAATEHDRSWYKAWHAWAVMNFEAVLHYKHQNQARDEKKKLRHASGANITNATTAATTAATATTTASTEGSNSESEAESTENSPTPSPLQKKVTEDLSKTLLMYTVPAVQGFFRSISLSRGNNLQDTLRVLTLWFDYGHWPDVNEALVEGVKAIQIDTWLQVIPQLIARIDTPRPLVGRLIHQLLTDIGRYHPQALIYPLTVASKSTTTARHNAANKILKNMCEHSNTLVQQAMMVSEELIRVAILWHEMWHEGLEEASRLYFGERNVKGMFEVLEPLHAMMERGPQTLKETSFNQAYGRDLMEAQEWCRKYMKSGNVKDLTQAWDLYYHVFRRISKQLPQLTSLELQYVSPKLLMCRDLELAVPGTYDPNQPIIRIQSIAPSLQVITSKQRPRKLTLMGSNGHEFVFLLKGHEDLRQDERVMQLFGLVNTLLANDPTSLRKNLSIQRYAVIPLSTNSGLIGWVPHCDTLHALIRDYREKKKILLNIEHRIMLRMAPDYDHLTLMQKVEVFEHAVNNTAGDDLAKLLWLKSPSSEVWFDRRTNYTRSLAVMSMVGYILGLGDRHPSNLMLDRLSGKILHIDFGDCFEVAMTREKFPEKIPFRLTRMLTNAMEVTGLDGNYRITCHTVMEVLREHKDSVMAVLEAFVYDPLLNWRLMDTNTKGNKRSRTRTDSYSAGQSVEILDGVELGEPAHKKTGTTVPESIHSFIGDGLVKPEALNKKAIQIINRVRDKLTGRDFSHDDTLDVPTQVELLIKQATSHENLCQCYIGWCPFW
Description: IC50s for mTOR interacting compounds were assessed using the FRAP1/mTOR TR-FRET tracer assay (Invitrogen by Life Technologies). […] Compounds were serially diluted in DMSO (12-point, 4× dilution factor) and 1 μL of diluted compound was then added to each well and mixed by pipetting using a Biomek FX (Beckman Coulter).

H4 mCherry-GFP-LC3 cells = test: Test 4: Autophagy Assay (mCherry-GFP-LC3 reporter, high-content imaging); format: cell-based; conditions: Homo sapiens, 16-18 h
From the text: Autophagy is a catabolic pathway that degrades bulk cytosol in lysosomal compartments enabling amino acids and fatty acids to be recycled. […] To quantify autophagy induction by mTOR inhibitors, we use a mCherry-GFP-LC3 reporter which is amenable to retroviral delivery into mammalian cells, stable expression and analysis by fluorescence microscopy.
Described hereinafter is an imaging protocol and image recognition algorithm to visualize and measure changes in the autophagic pathway.
Quantification of Autophagy Using High-Content Imaging and Analysis
• 1. Day 0: Cell plating. Subconfluent H4 mCherry-GFP-LC3 cells are harvested by trypsinization, resuspended in growth medium, and counted (H4 cells: Human neuroglioma cell line (ATCC)). A cell suspension of 66′000 cells/mL is prepared and 30 μL are added into the wells of a 384-well plate using an electronic multichannel pipette. […] The cell plates are briefly spun down and placed at 37° C. and 5% CO2. • 2. Day 1: Compound treatment. Compound dose responses are prepared in DMSO. The dose responses are then diluted 1:50 in medium. 10 ul of the diluted compound is added to 30 ul of cells, yielding a final 1:200 dilution of the original compound and final of 0.5% DMSO. Compound-treatments are performed in triplicates. The 384-well plates are placed at 37° C. and 5% CO2. Compound treatment is performed for 16-18 h (see Note 1). • 3. Day 2: Cell fixation. Cells are fixed by adding 10 μL/well 5× concentrated Mirsky's fixative supplemented with 25 μg/mL Hoechst33342. […] The 384-well plate is briefly spun down and incubated for 1 h at room temperature. Cells are then washed using a 384-well plate washer using a protocol which aspirates the volume down to 10 μL/well before dispensing 100 μL/well 1×TBS. Aspiration and dispensing steps are repeated 4 times and a final volume of 100 μL/well is left. The plate is sealed using an adhesive PCR foil. • 4. Imaging. The bottom of the plate is cleaned with 70% ethanol and then imaged using the InCell 1000 automated epifluorescence microscope. 20× magnification is used and 4 different areas (fields) are imaged per well, this typically captures a total of around 400 cells per well. Hoechst33342 images are acquired using an excitation of 360 nm (D360—40× filter), an emission of 460 nm (HQ460—40M filter) and an exposure time of 150 ms. GFP images are acquired using an excitation of 475 nm (S47520× filter), an emission of 535 nm (HQ535—50M filter) and an exposure time of 1 s. mCherry images are acquired using an excitation of 535 nm (HQ535—50× filter), an emission of 620 nm (HQ620—60M filter) and an exposure time of 1 s. A quadruple band pass mirror is used for all images. • 5. Image analysis. The InCell Analysis software is used to analyze the images using the Multi Target Analysis algorithm. First, nuclei are detected in the Hoechst33342 image using top-hat segmentation and a minimal nuclear area of 50 μm^2. Cells are defined using a collar of 10 μm around the nuclei. Second, puncta (organelles) are identified in the mCherry image inside the cells using multi-top-hat segmentation. Third, the mask of the mCherry puncta is transferred onto the GFP image. Fourth, the GFP fluorescence intensity inside the mCherry puncta mask is measured (reference intensity). • 6. The ‘organelles’ parameter reflects mCherry-positive puncta of the mCherry-GFP-LC3 reporter and is used to calculate ‘LC3 puncta/cell’. For this purpose, the number of organelles is calculated per cell and averaged over all the cells in a given well (average per cell basis). mCherry-positive LC3 puncta numbers (y-axis) are plotted against the compound dose response values (x-axis) and EC50 values are calculated for each compound. EC50 values represent compound potency in terms of autophagy activation (e.g. increase in mCherry-positive LC3 puncta count). Notes • 1. Autophagy-modulation and redistribution of mCherry-GFP-LC3 can be already observed after a compound treatment time of 3-4 h. […]

[2] = Table 1, mCherry-positive LC3 puncta/cell
[3] = Table 4 (unit inferred), mCherry-positive LC3 puncta/cell

Sequence of PI3Kα (P42336 other isoform, or with tags, fused parts or gaps): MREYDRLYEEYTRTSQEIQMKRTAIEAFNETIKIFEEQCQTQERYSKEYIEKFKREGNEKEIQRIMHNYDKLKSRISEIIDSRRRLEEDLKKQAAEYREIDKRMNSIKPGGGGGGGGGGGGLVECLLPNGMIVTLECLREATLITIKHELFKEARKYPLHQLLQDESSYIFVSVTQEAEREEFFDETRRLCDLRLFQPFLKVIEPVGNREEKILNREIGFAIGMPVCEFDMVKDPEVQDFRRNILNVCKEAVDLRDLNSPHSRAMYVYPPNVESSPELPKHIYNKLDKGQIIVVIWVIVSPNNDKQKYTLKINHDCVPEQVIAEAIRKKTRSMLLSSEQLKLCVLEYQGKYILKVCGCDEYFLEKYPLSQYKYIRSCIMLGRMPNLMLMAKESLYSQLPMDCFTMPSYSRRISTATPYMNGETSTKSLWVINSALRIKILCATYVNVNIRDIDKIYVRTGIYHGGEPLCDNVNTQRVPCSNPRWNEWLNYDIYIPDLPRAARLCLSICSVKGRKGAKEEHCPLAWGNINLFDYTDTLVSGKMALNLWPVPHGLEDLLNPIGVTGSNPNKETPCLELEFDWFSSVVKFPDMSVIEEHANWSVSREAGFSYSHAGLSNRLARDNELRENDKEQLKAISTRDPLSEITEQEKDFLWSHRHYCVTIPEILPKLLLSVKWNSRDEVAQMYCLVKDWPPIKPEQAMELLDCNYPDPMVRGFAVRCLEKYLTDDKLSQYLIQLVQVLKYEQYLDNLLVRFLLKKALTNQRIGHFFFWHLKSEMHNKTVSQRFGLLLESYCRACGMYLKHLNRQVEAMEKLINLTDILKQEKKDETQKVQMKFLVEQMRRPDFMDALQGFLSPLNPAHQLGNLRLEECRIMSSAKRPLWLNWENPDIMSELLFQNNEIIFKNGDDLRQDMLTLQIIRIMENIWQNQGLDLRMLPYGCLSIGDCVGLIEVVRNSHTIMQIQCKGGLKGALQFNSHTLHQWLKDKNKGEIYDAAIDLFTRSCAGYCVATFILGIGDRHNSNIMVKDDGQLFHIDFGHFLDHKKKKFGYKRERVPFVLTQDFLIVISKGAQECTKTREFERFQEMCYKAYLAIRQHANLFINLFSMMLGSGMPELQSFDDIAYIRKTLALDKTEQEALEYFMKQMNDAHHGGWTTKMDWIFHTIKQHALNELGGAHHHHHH

Structure (SMILES)	IC50 (PI3Kα) [µM]	IC50 [1] [µM]	IC50 (FRAP1/mTOR) [µM]	EC50 (H4 mCherry-GFP-LC3 cells; [2]) [µM]	EC50 (H4 mCherry-GFP-LC3 cells; [3]) [µM]
C[C@@H]1COCCN1c1nc(N2CCOCC2)nc2[nH]c(-c3cccc4[nH]ccc34)nc12 [Example 20, 8-(1H-Indol-4-yl)-6-((R)-3-methyl-morpholin-4-yl)-2-morpholin-4-yl-9H-purine]	6.05	0.09	0.006	0.452	–
c1cc(-c2nc3c(N4CCOCC4)nc(N4CCOCC4)nc3[nH]2)c2cn[nH]c2c1 [Example 27, 8-(1H-Indazol-4-yl)-2,6-di-morpholin-4-yl-9H-purine]	0.04	7.19	0.34	5.93	–
C[C@H]1COCCN1c1nc(N2CCOC[C@@H]2C)c2nc(-c3cccc4[nH]ccc34)[nH]c2n1 [Example 22, 8-(1H-Indol-4-yl)-2,6-bis-((S)-3-methyl-morpholin-4-yl)-9H-purine]	5.86	0.113	0.005	0.761	–
c1cc(-c2nc3c(N4C[C@@H]5C[C@H]4CO5)nc(N4CCOCC4)nc3[nH]2)c2cc[nH]c2c1 [Example 50, 8-(1H-Indol-4-yl)-2-morpholin-4-yl-6-(1S,4S)-2-oxa-5-aza-bicyclo[2.2.1]hept-5-yl-9H-purine]	4.22	0.92	1.2	–	8.67
CC(O)c1cccc(-c2nc3c(N4CCOC[C@@H]4C)nc(N4CCOCC4)nc3[nH]2)c1 (stereo partly drawn) [Example 12, 1-{3-[6-((S)-3-Methyl-morpholin-4-yl)-2-morpholin-4-yl-9H-purin-8-yl]-phenyl}-ethanol]	2.87	1.96	2.02	> 10	–
COc1ccc(-c2nc3c(N4CCOC[C@@H]4C)nc(N4CCOCC4)nc3[nH]2)cc1C(=O)O [Example 9, 2-Methoxy-5-[6-((S)-3-methyl-morpholin-4-yl)-2-morpholin-4-yl-9H-purin-8-yl]-benzoic acid]	> 9.1	7.3	3.2	> 10	–
C[C@H]1COCCN1c1nc(N2CCOCC2)c2nc(-c3ccc4cc[nH]c4c3)[nH]c2n1 [Example 49]	4.43	0.678	0.37	–	> 0.5
C[C@@H]1COCCN1c1nc(N2CCOC[C@H]2C)c2nc(-c3cccc4c3CCN4)[nH]c2n1 [Example 42, 8-(2,3-Dihydro-1H-indol-4-yl)-2,6-bis-((R)-3-methyl-morpholin-4-yl)-9H-purine]	4.91	0.099	0.04	–	4.63
C[C@@H]1COCCN1c1nc(N2CC3CCC(C2)O3)nc2[nH]c(-c3cccc4[nH]ccc34)nc12 [Example 46, 8-(1H-Indol-4-yl)-6-((R)-3-methyl-morpholin-4-yl)-2-(8-oxa-3-aza-bicyclo[3.2.1]oct-3-yl)-9H-purine]	0.58	0.1	0.03	–	0.171
CS(=O)(=O)Nc1cccc(-c2nc3c(N4CCOCC4)nc(N4CCOCC4)nc3[nH]2)c1 [Example 33, N-[3-(2,6-Di-morpholin-4-yl-9H-purin-8-yl)-phenyl]-methanesulfonamide]	> 9.1	2.99	0.38	7.73	–
c1cc2ncc(-c3nc4c(N5CCOCC5)nc(N5CCOCC5)nc4[nH]3)cc2[nH]1 [Example 13, 2,6-Di-morpholin-4-yl-8-(1H-pyrrolo[3,2-b]pyridin-6-yl)-9H-purine]	0.43	2.78	0.469	8.53	–
c1cc2ccc(-c3nc4c(N5C[C@@H]6C[C@H]5CO6)nc(N5CCOCC5)nc4[nH]3)cc2[nH]1 [Example 48, 8-(1H-Indol-6-yl)-2-morpholin-4-yl-6-(1S,4S)-2-oxa-5-aza-bicyclo[2.2.1]hept-5-yl-9H-purine]	4.3	1.46	1.01	–	6.41
CC1(C)COCCN1c1nc(N2CCOCC2)nc2[nH]c(-c3cccc4[nH]ccc34)nc12 [Example 40, 6-(3,3-Dimethyl-morpholin-4-yl)-8-(1H-indol-4-yl)-2-morpholin-4-yl-9H-purine]	6.47	0.841	0.35	–	> 8
C[C@@H]1COCCN1c1nc(N2CCOC[C@H]2C)c2nc(-c3cc(CO)ccc3F)[nH]c2n1 [Example 19, {3-[2,6-Bis-((R)-3-methyl-morpholin-4-yl)-9H-purin-8-yl]-4-fluoro-phenyl}-methanol]	0.17	0.3	0.134	2	–
Nc1cccc(-c2nc3c(N4CCOCC4)nc(N4CCOCC4)nc3[nH]2)c1 [Example 29, 3-(2,6-Di-morpholin-4-yl-9H-purin-8-yl)-phenylamine]	3.86	2.08	1.21	> 5	–
C[C@@H]1COCCN1c1nc(N2CCOCC2)nc2[nH]c(-c3ccc4cc[nH]c4c3)nc12 [Example 21, 8-(1H-Indol-6-yl)-6-((R)-3-methyl-morpholin-4-yl)-2-morpholin-4-yl-9H-purine]	> 9.1	0.831	0.237	0.498	–
C[C@H]1COCCN1c1nc(N2CCOC[C@@H]2C)c2nc(-c3ccc4cc[nH]c4c3)[nH]c2n1 [Example 14, 8-(1H-Indol-6-yl)-2,6-bis-((S)-3-methyl-morpholin-4-yl)-9H-purine]	> 9.1	0.349	0.007	1.28	–
C[C@@H]1COCCN1c1nc(N2CCOC[C@H]2C)c2nc(-c3cccc4[nH]ccc34)[nH]c2n1 [Example 15, 8-(1H-Indol-4-yl)-2,6-bis-((R)-3-methyl-morpholin-4-yl)-9H-purine]	4.58	0.062	0.009	1.78	–
C[C@H]1COCCN1c1nc(N2CCOCC2)nc2[nH]c(-c3cc(CO)ccc3Cl)nc12 [Example 10, {4-Chloro-3-[6-((S)-3-methyl-morpholin-4-yl)-2-morpholin-4-yl-9H-purin-8-yl]-phenyl}-methanol]	0.72	5.72	1.84	> 10	–
